# Reference: publication PMC3454376, “Salidroside Improves Behavioral and Histological Outcomes and Reduces Apoptosis via PI3K/Akt Signaling after Experimental Traumatic Brain Injury” (PLoS ONE, 2012)
# Key:
# [1] = Metabolic characteristics: serum BUN, CRE, ALT; assay type: in vivo, mice; conditions: for BUN / CRE: mean ± SEM, n = 4–5 mice/group
# Experimental: Three sets of experiments were performed. The first set was to investigate the protective effects of salidroside. All animals were randomized into 1 of 3 groups (sham injury, CCI + vehicle, CCI + SALD 20). Surgery/injury, behavioral testing, and tissue analyses were performed by different individuals. Behavioral testing and tissue analyses were performed by individuals blinded to the treatment group. Salidroside (Cayman Chemical, Ann Arbor, MI, USA) dissolved in normal saline (0.25 mL) or a corresponding volume of vehicle (saline) was administered intraperitoneally 10 min following injury. Testing after injury was completed as follows: 1) behavioral testing at days 1, 4, 7, 14, 21, and 28 (n = 8–10 mice/group); 2) cresyl violet staining at day 28 (n = 9 mice/group); 3) histology, determination of brain water content, and western blot analysis at day 1 or 3 (n = 5–6 mice/group). To determine the optimal dose of salidroside, a pilot study was performed using 2 different doses (20 and 50 mg/kg) administered 10 min after injury, and neurological deficits and tissue damage were evaluated as the main outcomes. […] The second set of experiment was to assess the effect of the inhibition of PI3K/Akt with the specific PI3K inhibitor, LY294002 (Cell Signaling Technology, Danvers, MA, USA), on salidroside effects. Animals were randomized into 4 groups. Mice received either: 1) icv pretreatment of LY294002 followed by SALD 20 after CCI (S20Y group); or 2) icv pretreatment of saline (vehicle control) followed by SALD 20 after CCI (S20V group). 3) Mice were infused icv with saline and were subjected to sham injury. 4) Mice were infused icv with LY294002 and were subjected to sham injury. Testing after injury was completed as follows: 1) cresyl violet staining at day 28 (n = 6 mice/group); 2) western blot analysis at day 1 (n = 6 mice/group). The third set of experiment was performed to examine the neuroprotective time window afforded by salidroside. Mice received intraperitoneal SALD 20 or vehicle (saline) at 3 or 6 h following CCI and were sacrificed 1 day later for FJB staining and western blot analysis (n = 6 mice/group).
# Following terminal anesthesia, venous blood was collected via direct right atrial puncture. The obtained blood was centrifuged (3500 rpm for 5 min), and the serum was stored at −20°C until analysis. A chemistry analyzer (Synchron Clinical System LX20; Beckman Coulter, Fullerton, CA, USA) was used to measure serum BUN and CRE to assess renal function, and ALT to assess liver function.
# [2] = test system: primary cultured cortical neurons; assay: MTT cell viability after in vitro neuronal stretch injury; assay type: cell-based, C57BL/6 mice; conditions: added immediately after injury, MTT at 24 h, stretch alone 61.8±1.5%
# Experimental: All culture medium supplies were from Invitrogen (Invitrogen, Carlsbad, CA, USA). Cortical neuronal cells were prepared from embryonic day 15.5 C57BL/6 mice and cultured in serum-free conditions as previously described. Briefly, the cortices were isolated and digested in 0.5 mg/mL papain at 37°C for 15 min, followed by dissociation in Hibernate-A medium (containing B27 supplement) by aspirating trituration. The cells were then plated onto poly-L-lysine-coated 6-well silastic culture plates (Flexcell International Corporation, Hillsborough, NC, USA) at a density of 5×10^4 cells/cm^2 and maintained in Neurobasal medium supplemented with B27, 10 units/mL penicillin, […], and 0.5 mg/mL glutamine. Four days after plating, 50% of the medium was removed and replaced with fresh medium. The cells were cultured at 37°C in a humidified tri-gas incubator (5%O2, 90% N2, and 5% CO2) and were used at day 10 in vitro. The cortical cultures contain mostly neurons and there were <2% of glia cells, as determined by immunohistochemical staining.
# Cultures were stretched by rapid deformation of the silastic culture plates (Flexplates), using the Cell Injury Controller II (Custom Design and Fabrication; Virginia Commonwealth University, Richmond, VA, USA) as previously described. This device uses a regulated flow of compressed gas to rapidly pressurize cells cultured on flexible substrates, causing a radial stretch injury. […] This stimulus intensity corresponds to the “moderate stretch” [62]. The primary cultured neurons were treated with 0.1, 1, 10, 20, and 50 µM salidroside, respectively, immediately following injury. The cortical neurons cultured in plain medium served as control. Cell viability analysis was performed 24 h after injury.
# The cell viability was determined by assessing the degree of MTT reduction. Briefly, cells were incubated at 37°C for 2 h with MTT (0.5 mg/mL final concentration; Sigma-Aldrich; St. Louis, MO, USA). Afterwards, a solution of anhydrous isopropanol, HCl (0.1 N), and 0.1% Triton X-100 was added for the dissolution of formazan crystal. The optical density was determined at 570 nm using a microplate reader. Cell viability was expressed as a percentage of the control culture. The experiments were repeated 4 times with different batches of primary cultures.
smiles,measurement,setting,value
"OC[C@H]1O[C@@H](OCCc2ccc(O)cc2)[C@H](O)[C@@H](O)[C@@H]1O [SALD, salidroside]","plasma concentrations of BUN, CRE, ALT (effect of treatment)",[1]; 20 mg/kg,did not alter
same,BUN,[1]; SALD 20 mg/kg,23.2 ± 2.49 mg/dL
same,CRE,[1]; SALD 20 mg/kg,0.17 ± 0.01 mg/dL
same,BUN,[1]; SALD 50 mg/kg,28.06 ± 4.5 mg/dL
same,CRE,[1]; SALD 50 mg/kg,0.16 ± 0.04 mg/dL
same,cell survival after stretch injury (relative to control),"[2]; 0.1 µM, P>0.05",65.3±1.3%
same,cell survival after stretch injury (relative to control),"[2]; 1 µM, P<0.001",72.5±1.6%
same,cell survival after stretch injury (relative to control),"[2]; 10 µM, P<0.001",90.9±1.4%
same,cell survival after stretch injury (relative to control),"[2]; 20 µM, P<0.001",91.4±1.4%
same,cell survival after stretch injury (relative to control),"[2]; 50 µM, P<0.001",90.5±1.4%
